Measurements reported in a melting point compilation (Tetko et al.; mined from patent text by program, amines drawn as free bases though some values may be those of a salt).

| SMILES | melting point |
| --- | --- |
| COc1ccc(S(=O)(=O)N2C(=O)C(OC(=O)Oc3ccccc3)(c3ccccc3OC(F)(F)F)c3cc(Cl)ccc32)c(OC)c1 (centres undefined) | 203 to 204 °C |
| COc1ccc(CCN(C)CCCN(C(C)C)S(=O)(=O)c2ccc(Cl)c(Cl)c2)cc1OC | 62 to 64 °C |
| CC(=O)c1ccc(O)c(CCCc2ccccc2)c1O | 120 to 122 °C |
| Cc1ncc2[nH]c3ccccc3c2n1 | 240 to 242 °C |
| O=C(Nc1ccc2ccc(Cl)nc2n1)c1ccc2ccccc2n1 | 260 °C |
| CCCn1c(=O)c2[nH]c(/C=C/c3cc(OC)c(OC)c(OC)c3)nc2n(CCC)c1=O | 162 to 163 °C |
| Cc1cc(NC(=O)c2cccc(CCc3cccnc3)c2)ccc1C(C)C | 143 to 144 °C |
| Cc1c(Nc2ccc(Cl)cc2C(=O)O)cccc1C(F)(F)F | 220 to 222 °C |
| CCn1nc(O)nc1SC | 83 to 87 °C |
| O=C(CC(C(=O)O)c1ccccc1)Nc1cc(Cc2n[nH]c(=O)c3ccccc23)ccc1F (centres undefined) | 180 to 183 °C |
| O=C1CCC(=O)N(c2ccc(N3CCN(C4(c5ccc(-c6ccccc6)cc5)C(=O)NC(=O)NC4=O)CC3)cc2)C1 | 300 to 301 °C |
| CCCc1nc(C=NNC(=S)SC)c(C)[nH]1 | 175 to 179 °C |
| Cc1ccc(C(=O)C=Cc2cc(O)c(O)c([N+](=O)[O-])c2)cc1 | 184 to 186 °C |
| CCSc1cn(C)cc(-c2cc(C(F)(F)F)ccc2Cl)c1=O | 127 to 129 °C |
| O=C(O)c1ccc(C=NS(=O)(=O)c2ccc(Cl)cc2)cc1 | > 245 °C |
| COc1cc(Cl)c(N2CCN(c3cccc(C(F)(F)F)c3)CC2)c(Cl)c1 | 87 to 89 °C |
| CN(C(=O)[C@@H](OP(c1ccccc1)c1ccccc1)C(C)(C)C)P(c1ccccc1)c1ccccc1 | 95 to 96 °C |
| CCN(c1ccc(F)cc1[N+](=O)[O-])S(=O)(=O)c1ccc(C)cc1 | 93 to 94.5 °C |
| O=C(NCc1ccc(Cl)cc1)c1cc(F)c2cccnc2c1O | 184 to 185 °C |
| C=CCc1c(O)ccc(C(=O)OC)c1O | 65 to 66 °C |
| Cc1nc(C#Cc2ccccc2)sc1C | 55 to 60 °C |
| CCNc1nc(C)c(-c2ccnc(Nc3cc(OC)cc(OC)c3)n2)s1 | 235 to 237 °C |

| SMILES | melting point |
| --- | --- |
| CCOC(=O)c1ccc(-c2cc3c(NCc4cccc(Cl)c4)ncnc3[nH]2)cc1 | 305 to 306 °C |
| OCc1c(-c2ccc(O)cc2)nnn1-c1ccc(C(F)(F)F)cc1Cl | 181 to 182 °C |
| O=C1NCCC1Cc1ccccc1 (centres undefined) | 112 to 113 °C |
| N#Cc1cnn(-c2ccc(Cl)c(Cl)c2Cl)c1N(C(=O)Oc1ccccc1)C(=O)Oc1ccccc1 | 206 to 208 °C |
| N#Cc1ccc(-c2ccc(Cl)cc2)nc1Cl | 179 to 181 °C |
| CCOc1cc(-c2cc(C(F)(F)F)n3cnc(-c4ccnc(C)c4)c3n2)ccc1C(F)(F)F | 177 °C |
| CN[C@@H](CO)Cc1ccccc1 | 69 °C |
| CCCCCCCC(=O)c1ccc(CCC(C)(CCOC(C)=O)NC(C)=O)cc1 (centres undefined) | 83 to 84 °C |
| CCCCCC(CC(=O)Nc1cc(CCC(=O)NC)ccc1C(C)(C)C)c1c(OC)cccc1OC (centres undefined) | 111 to 112 °C |
| CCCCc1nc(C(=O)O)c(C(=O)O)n1Cc1ccc(I)cc1 | 98 to 99 °C |
| Cc1ccc(N=CN(C)C=Nc2ccccn2)c(C)c1 | 100 °C |
| Cc1cccc(-c2n[nH]cc2-c2ccc(F)c(-c3ccc(S(N)(=O)=O)cc3)c2)n1 | 115 to 118 °C |
| O=C(COC(=O)CCCc1ccc(N(CCCl)CCCl)cc1)NCCCC(O)(P(=O)(O)O)P(=O)(O)O | > 260 °C |
| CCOC(=O)c1cn(Cc2cnsn2)c2nc(Cl)c(F)cc2c1=O | 175 to 177 °C |
| CC(C)(C)N(Cc1ccccc1)CC(O)c1ccc(OCc2ccccc2)c(N)c1 (centres undefined) | 68 to 69 °C |
| O=C(O)c1ccccc1Oc1cc(Cl)c(Cl)cc1NS(=O)(=O)c1ccc(Cl)cc1 | 220 to 221 °C |
| O=Cc1ccc(C=Cc2ccc(C=O)cc2)cc1 | 169 °C |
| O=C1NC(=O)C(Nc2ccc(CCNCC(O)COc3ccc(-c4ccccc4)cc3)cc2)S1 (centres undefined) | 70 to 71 °C |
| N#CCCn1cccc1C1=CC(=O)c2ccccc2C1=O | 127 to 128 °C |
| COc1ccc2c(c1)c1c3c(c(-c4ccccc4Cl)cc1n2CCC(N)=O)C(=O)NC3=O | 283 to 286 °C |
| COc1ccc(C(O)CNCc2cccc(OC)c2C)cc1OC (centres undefined) | 135 to 136 °C |

Further lines, results first:

| melting point | SMILES |
| --- | --- |
| 238 to 240 °C | CC(=O)N[C@@H](CC(C)C)C(=O)N[C@@H](CC(C)C)C(=O)N[C@H]1CCCOC1OC(C)=O (some centres undefined) |
| 42 °C | C=CCN1CCCC1CNC(C)=O (centres undefined) |
| 80.3 °C | Cc1cc(C2=C(c3ccc(S(C)(=O)=O)cc3)C(C)(C)OC2=O)ccc1-c1cscn1 |
| 201 °C | CN(C(=O)N[C@@H](Cc1ccc(NC(=O)c2c(Cl)cccc2Cl)cc1)C(=O)O)c1ccccc1C(=O)NCC1CCCCC1 |
| 200 to 204 °C | CC(C)N1CCN(C(=O)OC2CCN(c3ccc(C(N)=O)cn3)CC2)CC1 |
| 165 to 166 °C | COc1cc2c(cc1OC)CC(NC(=O)N(C)O)C2 |
| 99 to 101 °C | CC(C)C[C@H](NC(=O)CCSC(=O)c1ccccc1)C(=O)O |
| 166 to 168 °C | CC(=O)N1CCc2c([nH]c3ccccc23)C1CCCCl (centres undefined) |
| 178 °C | COc1nc(C2CC2)nc(O)c1C |
| 156 to 159 °C | O=C(O)Cc1ccc(Cl)cc1[N+](=O)[O-] |
| 194 to 195 °C | O=c1cc(N2CCOCC2)oc2ccc(Cl)cc12 |
| 86 to 89 °C | Cc1noc(NS(=O)(=O)c2ccsc2-c2ccccc2)c1Br |
| 47 to 48 °C | CC(=O)C1(C)CCCS1(=O)=O (centres undefined) |
| 145 to 147 °C | CCOc1ccc(C2=NNC(=O)[C@H]3CC=CC[C@@H]23)cc1OCC (relative stereo) |
| 158 to 160 °C | CC(=O)c1cc(C)cc(C)c1NC(=O)c1sccc1S(=O)(=O)Nc1onc(C)c1C |
| 171 to 174 °C | CC(=O)NCC1CN(c2ccc(N3CCN(c4ccc([N+](=O)[O-])s4)CC3)c(F)c2)C(=O)O1 (centres undefined) |
| 135 to 136 °C | CN1CCCC1=NC(=O)Nc1cccc(Cl)c1 |
| 164 to 165 °C | COc1ccc2c(c1)NC(=O)c1ccccc1O2 |
| > 300 °C | Nc1cc(C(=O)O)ccc1-c1nc(-c2ccc(C(F)(F)F)cc2)no1 |

| melting point | SMILES |
| --- | --- |
| 250 °C | C=CC1OC(=O)N2c3ccc(O)cc3CCC12 (centres undefined) |
| 157 to 158 °C | S=C(Nc1ccccc1Br)c1ccccc1 |
| 106 to 111 °C | CCN1c2ccccc2N(C)C(=O)c2cccnc21 |
| 130 to 132 °C | COC(=O)c1c(Cl)nc2cc3c(cc2c1CCl)OCCO3 |
| 113 to 114 °C | CC(=O)CCN1CCC(=C2c3ccccc3CCc3ccccc32)CC1 |
| 190 to 192 °C | CC(=O)Nc1ccc2c(c1)CC(CC(=O)O)C2=O (single isomer, unassigned; (-)) |
| 135 to 137 °C | Nc1cccc(C23CC2C(=O)NC3=O)c1 (centres undefined) |
| 154 to 155 °C | Fc1ccc(-c2ncn(C3CCNCC3)c2-c2ccnc(Oc3ccccc3F)n2)cc1 |
| 159 to 160 °C | Cc1cccc(COc2cccc(OCc3coc(-c4ccc(F)cc4)n3)c2)c1C(=O)O |
| 37 °C | BrC1COCOCC1Br (centres undefined) |
| 202 to 203 °C | Cc1cc(O)c(Cc2ccc(C(C)C)cc2)c(C)c1NC(=O)CC(C)(C)C |
| > 300 °C | O=c1c2cnccc2[nH]c2ccnn12 |
| 195 to 196 °C | COc1cc(/C=C(\C)C(=O)O)c2cccc(C(C)C)c2c1O |
| 91 to 92 °C | COC(=O)c1c(OCc2ccccc2)ccc2c1CC[C@H](NC(C)C)[C@@H]2O (relative stereo) |
| 232 to 233 °C | Cc1cc(C)cc(Oc2ccc([N+](=O)[O-])cc2S(=O)(=O)N2CCN(C(=O)OC(C)(C)C)CC2)c1 |
| 131 to 133 °C | c1ccc2c(c1)c1ccccc1n2C1CCCCO1 (centres undefined) |
| > 260 °C | Cc1c[nH]c(=O)c2c3c([nH]c12)CCC(=O)C3 |
| 210 to 211 °C | CC(C)C(C(=O)O[C@H]1C[C@H](O)C=C2C=C[C@H](C)[C@H](CC[C@@H]3C[C@@H](O)CC(=O)O3)[C@H]21)C(C)C |
| 90 to 92 °C | Clc1cncc(Cl)c1C1=NC(c2ccc(I)cc2)CO1 (centres undefined) |

| melting point | SMILES |
| --- | --- |
| 85 to 90 °C | CC(C)(C)c1cc(C#N)c(Nc2ccccc2[N+](=O)[O-])s1 |
| 126 to 129 °C | CC(=O)N1CCN(c2ccc(N)c(C)c2)CC1 |
| 190 °C | O=C(O)C1CSC(c2ccccc2-c2ccccc2)N1 (mixture of isomers) |
| 237 to 239 °C | Cc1oc(-c2ccccc2)nc1Cc1cc2cc(C=CC=C3OC(=O)NC3=O)ccc2o1 |
| 86 °C | CCc1cc2cc([N+](=O)[O-])ccc2o1 |
| 198 to 200 °C | CCSc1ccc(C(=O)NCc2ccc3c(c2)C(=O)N(C2CCC(=O)NC2=O)C3=O)nc1 (centres undefined) |
| 142 to 143 °C | O=C(O)[C@H](Cc1cccc(OCC(F)(F)F)c1)[C@@H](O)c1ccc(F)cc1 (racemic) |
| 134 to 135 °C | CS(=O)(=O)c1ccc(Oc2cccc(C(=O)Nc3ccc(F)cc3)n2)cc1 |
| 102 to 114 °C | c1ccc2c(c1)N[C@H]1CCNCC[C@@H]21 (relative stereo) |
| 141 to 145 °C | Cn1c(C(F)(F)F)cc(=O)n(-c2c(F)cc(Cl)c3c2OCCC3)c1=O |
| 251 to 252 °C | Oc1cccc(-c2nc3n(n2)Cc2ccccc2-3)c1 |
| 148 to 150 °C | Cc1ncn(-c2ccc(C(=O)N3Cc4cccn4Cc4ccccc43)c(C(F)(F)F)c2)n1 |
| 234 to 235 °C | CC(=O)OCC1OC(n2cnc3c(O)nc(Nc4ccccc4)nc32)C(OC(C)=O)C1OC(C)=O (centres undefined) |
| 114 °C | O=C(c1ccc(F)cc1)C1CCN(CCCN2c3ccccc3-c3ccccc3S2(=O)=O)CC1 |
| 137 °C | CC(C)(C)c1nnc(N=C2SC[C@@H]3Cc4ccccc4CN23)s1 |
| 95 to 97 °C | Cc1cc(F)ccc1-c1cccc(C(=O)Nc2ccc(OCCN3CCOCC3)c3ccccc23)c1 |
| 180 to 182 °C | Cc1onc(-c2ccc(F)cc2)c1-c1ccc(S(N)(=O)=O)c(F)c1 |
| 178 to 182 °C | Nc1ccc(-c2cc3c(Oc4ccc(Cl)cc4)cncc3s2)cc1 |
